# Data from publication PMC12128024, “Copper(II) Cyclopeptides with High ROS-Mediated Cytotoxicity” (Bioconjugate Chemistry, 2025).
# *1 amine or outer side, *2 acyl side, *3 side chain or, on linkers, in order; H or OH if unused. Where a SMILES comes first, the peptide text is derived from it. [ ]: non-standard residue; d: D form. X1 = O=C(c1ccc(-c2ccc(N[*:1])cn2)nc1)[*:2]; βAla = NCCC(=O)O
# Tests used:
# [1] = test system: NCI-H460 (lung carcinoma); conditions: 48 h
# From the text: (§1) IC50 is the concentration at which 50% growth inhibition is obtained and E max represents the efficacy of the compound at its maximum concentration, expressed as the maximum % cell inhibition achieved by the compound (see Section S6 and Figure S8 of the Supporting Information).
# (§2) General method: cell lines and grown conditions
# (§3) Non-small lung carcinoma NCI-H460, human colon carcinoma HCT-116, human glioma SF-268
# (§4) and doxorubicin-resistance human mamma carcinoma NCI/ADR-RES cell lines, as well as
# (§5) Eagle’s Minimal Essential Medium (EMEM) and RPMI1640 were purchased from the American Tissue Culture Collection (ATCC). Frozen cells were thawed in a 75 cm2 cell culture flask in RPMI
# (§6) supplemented with 2 mM L-glutamine and 10% FBS and maintained at 37 °C in a 5% CO2
# (§7) The inhibition of cell proliferation induced by the samples [1/Cu(II), 1 eq. cyclopeptide 1/3 eq. of
# (§8) Cu(II); 2/Cu(II), 1 eq. cyclopeptide 2/5 eq. of Cu(II)]‚ was carried out by using MTT method for
# (§9) HCT-116, NCI/ADR-RES and NCI-H460 cell lines. SF-268 cell growth inhibition induced by the
# (§10) samples was assessed using a system based on crystal violet cell staining and subsequent
# (§11) acetylation. Cells were seeded in a 96-well microplate (5000 cells/well for HCT-116, 10000
# (§12) cells/well for SF-268 and 15000 cells/well for NCI/ADR-RES and NCI-H460 cell lines) in 100 μl
# (§13) of growth medium and maintained at 37 °C for 24 h.
# (§14) Then growth medium was replaced by fresh medium containing different concentrations of the
# (§15) samples to be assayed and maintained at 37 °C in a 5% CO2 atmosphere for 48 h. After this
# (§16) time, 10 μL MTT (5 mg/ml in PBS) were added to each well and maintained for 4 h at 37 °C in a
# (§17) 5% CO2 atmosphere. Then 100 μL of 10% SDS in 0.01 M HCl were added to each well an
# (§18) incubated for 12-14 h under the same experimental conditions. Absorbance due to formation
# (§19) was detected in a Tecan infinity M1000 Pro reader using a wavelength of 595 nm. All assays
# were performed with triplicate points.
# b) Crystal violet cell staining
# (§20) The samples dissolved in water were added, maintaining the same proportion of water in each
# (§21) well (10%). After 72 h (at 37°C and in an atmosphere of 5% CO 2/95% air), the cells were fixed to
# (§22) the plate with 10 μL of 11% glutaraldehyde solution, kept under agitation at room temperature,
# (§23) for 15 minutes. Once fixed, the medium was removed and the cells were washed 3-4 times with
# (§24) distilled water, followed by staining of the cells with 100 μL of a 0.1% crystal violet solution. This
# (§25) solution was prepared by diluting 0.1g of crystal violet in 100 mL of buffer composed of 200 mM
# (§26) phosphoric acid, 200 mM formic acid and 200 mM 2-(N-morpholino)-ethane sulphonic acid
# (§27) (MES) at pH 6. The plate was kept shaking at room temperature for 15 minutes. The dye was
# (§28) removed, washed 3-4 times with distilled water and dried. 100 μL of 10% acetic acid was then
# (§29) added and kept under agitation for 15 minutes, at room temperature, so that the staining was
# (§30) homogeneous in all wells. Finally, an absorbance reading of the plates was performed at a
# (§31) wavelength of 595 nm (Tecan M1000 Infinite Pro). The assay was performed with triplicate points.
# (§32) Data were expressed as the growth inhibition percentage calculated in basis on the equation: %
# (§33) inhibition= 100 – [(AO × 100) / AT]. Where AT is the measured absorbance in wells containing
# (§34) compounds and AO is the absorbance measured in blank wells (cells with medium and vehicle).
# (§35) The inhibitory potency of compounds was calculated by constructing concentration-% growth
# (§36) inhibition curves, and extrapolating IC50 values (concentration of compound that inhibits cells
# SF-268 (human glioma) = conditions: 72 h
# From the text: as §1, §2, §3, §4, §5, §6, §7, §8, §9, §10, §11, §12, §13, §14, §15, §16, §17, §18, §19
# were performed with triplicate points.
# b) Crystal violet cell staining
# as §20, §21, §22, §23, §24, §25, §26, §27, §28, §29, §30, §31, §32, §33, §34, §35, §36
# [2] = test system: nontransformed lung fibroblast (MRC-5); conditions: 48 h
# From the text: as §1, §2, §3, §4, §5, §6, §7, §8, §9, §10, §11, §12, §13, §14, §15, §16, §17, §18, §19
# were performed with triplicate points.
# b) Crystal violet cell staining
# as §20, §21, §22, §23, §24, §25, §26, §27, §28, §29, §30, §31, §32, §33, §34, §35, §36
# NCI/ADR-RES cells = test: ICP-MS internalization study (intracellular Cu accumulation); assay type: cell-based; conditions: 1 µM compound, 48 h, metallopeptides 1 eq. cyclopeptide + 1 eq. Cu(II)
# Protocol: To evaluate the ability of the Cu(II) metallopeptide systems to internalize in cancer cells, ICP-MS studies were performed in NCI/ADR-RES cells after 48 h of incubation with cyclopeptides 1 and 2, as well as their corresponding 1/Cu(II) and 2/Cu(II) metallopeptide derivatives formed by mixing each cyclopeptide with 1 equiv Cu(II), and using CuCl2·2H2O both as a Cu(II) source and a control.
# 7.1. General methods and materials
# ICP Measurements were conducted employing an Agilent 7900 ICP-MS system (Agilent Technologies, Tokyo, Japan). The sample introduction system was comprised of an autosampler, a double-pass spray chamber with Peltier system, a glass concentric nebulizer (MicroMist low-flow nebulizer, Glass Expansion, West Melbourne, Australia), and a quartz torch.
# Quantification of copper concentrations was achieved using Agilent ICP-MS MassHunter 5.1, (Version D.01.01 Agilent Technologies, Tokyo, Japan). The parameters for the ICP-MS device were as follows: RF Power, 1550 W; Sample Depth, 8; Carrier Gas, 1.1 L/min; Nebulizer Pump […]
# Roswell Park Memorial Institute 1640 medium (RPMI), fetal bovine serum (FBS), penicillin, and streptomycin were purchased from Invitrogen Thermo Fisher.
# Ovarian tumour NCI/ADR-RES cells, obtained from the European Collection of Authenticated Cell Cultures (ECACC), were cultured at 37 °C in a 5% CO2 atmosphere in RPMI medium containing 10% FBS and supplemented with 50 U/mL penicillin and 50 U/mL streptomycin, in 75 cm2 cell culture flasks. All cell experiments were performed at 37 °C in a 5% CO 2 atmosphere with this modified RPMI, referred as “medium” or “culture medium”.
# 7.3. […]
# The culture medium was then replaced with 3 mL of fresh medium containing 1 µM of the compound [Cu(II) (CuCl₂·2H₂O), cyclopeptide ( 1 or 2), or metallopeptide system [1/Cu(II) or 2/Cu(II); 1 eq. cyclopeptide + 1 eq. […] Lysates were digested at 95 °C overnight, diluted with 1% HNO₃ to a final volume of 5 mL, and analyzed by ICP-MS. The Cu(II) content in the culture medium (3 mL) was also measured using the same technique, yielding a value of 41.46 ng. […]
structure (smiles),measurement,setting,value
"N=C(N)NCCC[C@@H]1NC(=O)c2ccc(nc2)-c2ccc(cn2)NC(=O)CCNC(=O)[C@H](CCCNC(=N)N)NC(=O)[C@H](CCCNC(=N)N)NC(=O)[C@H](CCCNC(=N)N)NC(=O)c2ccc(nc2)-c2ccc(cn2)NC(=O)CCNC(=O)[C@H](CCCNC(=N)N)NC(=O)[C@H](CCCNC(=N)N)NC1=O [compound 1, cyclo-(βAlaBpy-Arg3)2] (cyclo([X1]RRR[βAla][X1]RRR[βAla]))",E max (maximum % cell inhibition),[1],32 ± 2%
same,IC50,[1],> 100 µM
same,E max (maximum % cell inhibition),SF-268 (human glioma),45 ± 2%
same,IC50,SF-268 (human glioma),> 100 µM
same,E max (maximum % cell inhibition),[2],24 ± 2%
same,IC50,[2],> 100 µM
same,intracellular Cu(II) accumulation (ICP-MS),NCI/ADR-RES cells,notably lower than that of the metallopeptide systems
